Reference: US20090105124A1, “HETEROCYCLIC MODULATORS OF TGR5” (Kalypsys, Inc., priority 2007, published 2009)

These molecules were tested against T1, human TGR5 (Homo sapiens, UniProt Q8TDU6) (assay: cAMP production assay in HEK293 cells stably expressing TGR5 (LANCE cAMP, TR-FRET)). Details: stimulated with test compounds for 30 minutes, 1 mM IBMX, read-out: cAMP Production in 293-TGR5 Cells.
T1 construct: expressed in transfected cells
T1 sequence (Q8TDU6 1-330): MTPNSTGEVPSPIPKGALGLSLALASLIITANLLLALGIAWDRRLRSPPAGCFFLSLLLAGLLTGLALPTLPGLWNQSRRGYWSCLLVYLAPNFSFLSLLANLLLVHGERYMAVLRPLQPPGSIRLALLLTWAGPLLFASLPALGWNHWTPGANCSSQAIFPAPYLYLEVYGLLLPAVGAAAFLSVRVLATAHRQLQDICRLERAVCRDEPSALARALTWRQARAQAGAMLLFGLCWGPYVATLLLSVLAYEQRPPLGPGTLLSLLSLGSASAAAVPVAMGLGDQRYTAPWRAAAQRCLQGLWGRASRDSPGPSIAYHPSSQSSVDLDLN
Assay type: cell-based
Procedure: HEK293 cells stably expressing TGR5 (HEK293-TGR5) were established by stably transfecting HEK-293 cells with an expression vector (pcDNA 3.1, Invetrogen) inserted with human TGR5 cDNA using Fugene6 (Roche, Indianapolis, Ind.) according to conventional methods. Cells were grown in DMEM (invitrogen, Carlsbad, Calif.) supplemented with 10% FBS, 1% penicillin/streptomycin under geneticin selection. The presence of TGR5 transcripts in these cells was confirmed using branched DNA (bDNA, Genospectra, Inc., Fremont Calif.) following the manufacturer's protocol and using specific probes for human TGR5. cAMP production assay was performed in high throughput 1536 well format using LANCE cAMP detection kit (Perkin Elmer Inc., Boston, Mass.) according to the manufacturer's protocol. Briefly, HEK293-TGR5 cells were harvested using non-enzymatic cell dissociation buffer (Invitrogen, Carlsbad, Calif.) and suspended in DMEM supplemented with 0.1% FBS at a density of 800,000 cells/ml. Alexa antibody was added to the cell suspension, and 4 ul of the mixture was dispensed in white opaque tissue culture treated Greiner 1536 well plates (USA Scientific, Inc., Ocala, Fla.). After an overnight incubation at 37 C in an atmosphere of 10% CO2 and 95% humidity, 1 ul of 5 mM IBMX (Sigma, St. Louis, Mo.) solution in DMEM was dispensed for a final concentration of 1 mM. Cells were then stimulated with test compounds for 30 minutes, after which time 5 ul of detection reagent was added and incubated for 1-7 hrs at room temperature. TR-FRET signal was detected using the Viewlux (Perkin Elmer Inc., Boston Mass.). EC50 values were determined using Graph Pad Prizm analysis (GraphPad Software, Inc). The EC50 values for a wide range of bile acids generated from this assay were in agreement with the values published in the scientific literature. […] The symbol (+) denotes an EC50 value of ≦10 μM while the symbol (−) denotes an EC50 value of >10 μM (see Table 1).

EC50, ≤ 10 µM:
N#Cc1ccc(CNn2c(-c3ccc(F)cc3)nc3nccnc3c2=O)cc1 [Example 44, 4-({[2-(4-Fluorophenyl)-4-oxo-3,4-dihydropteridin-3-yl]amino}methyl)benzonitrile]
O=c1c2cccnc2nc(-c2cncc(Cl)c2)n1NCc1ccc(Cl)cc1F [Example 1, 3-{[(4-Chloro-2-fluorophenyl)methyl]amino}-2-(5-chloropyridin-3-yl)-3H,4H-pyrido[2,3-d]pyrimidin-4-one]
COc1cccc(-c2nc3ncccc3c(=O)n2NCc2ccc(Cl)cc2)c1 [Example 3, 3-{[(4-Chlorophenyl)methyl]amino}-2-(3-methoxyphenyl)-3H,4H-pyrido[2,3-d]pyrimidin-4-one]
O=c1c2nccnc2nc(-c2ccc(F)cc2)n1NCc1ccc(Cl)cc1F [Example 46, 3-{[(4-Chloro-2-fluorophenyl)methyl]amino}-2-(4-fluorophenyl)-3,4-dihydropteridin-4-one]
O=c1c2cccnc2nc(-c2cncc(Cl)c2)n1NCc1ccc(Cl)cc1 [Example 8, 3-{[(4-Chlorophenyl)methyl]amino}-2-(5-chloropyridin-3-yl)-3H,4H-pyrido[2,3-d]pyrimidin-4-one]
O=c1c2ncccc2nc(-c2ccc(F)cc2)n1NCc1ccc(Br)cc1 [Example 25, 3-{[(4-Bromophenyl)methyl]amino}-2-(4-fluorophenyl)-3H,4H-pyrido[3,2-d]pyrimidin-4-one]
Cn1ncc2nc(-c3ccc(F)cc3)n(NCc3ccc(Cl)cc3)c(=O)c21 [Example 41, 6-{[(4-Chlorophenyl)methyl]amino}-5-(4-fluorophenyl)-1-methyl-1H,6H,7H-pyrazolo[4,3-d]pyrimidin-7-one]
COc1cc(-c2nc3ncccc3c(=O)n2NCc2ccc(Cl)cc2)ccc1C [Example 14, 3-{[(4-Chlorophenyl)methyl]amino}-2-(3-methoxy-4-methylphenyl)-3H,4H-pyrido[2,3-d]pyrimidin-4-one]
COc1cc(-c2nc3ncccc3c(=O)n2NCc2ccc(Cl)cc2)ccc1O [Example 15, 3-{[(4-Chlorophenyl)methyl]amino}-2-(4-hydroxy-3-methoxyphenyl)-3H,4H-pyrido[2,3-d]pyrimidin-4-one]
Cn1cnc2nc(-c3ccc(F)cc3)n(NCc3ccc(Br)cc3)c(=O)c21 [Example 38, 1-{[(4-Bromophenyl)methyl]amino}-2-(4-fluorophenyl)-7-methyl-6,7-dihydro-1H-purin-6-one]
O=c1c2sccc2nc(-c2ccc(F)cc2)n1NCc1ccc(Br)cc1 [Example 35, 3-{[(4-Bromophenyl)methyl]amino}-2-(4-fluorophenyl)-3H,4H-thieno[3,2-d]pyrimidin-4-one]
COc1ccc(-c2nc3ncccc3c(=O)n2NCc2ccc(Br)cc2)cc1 [Example 5, 3-{[(4-Bromophenyl)methyl]amino}-2-(4-methoxyphenyl)-3H,4H-pyrido[2,3-d]pyrimidin-4-one]
COc1cncc(-c2nc3sccc3c(=O)n2NCc2ccc(Cl)cc2)c1 [Example 34, 3-{[(4-Chlorophenyl)methyl]amino}-2-(5-methoxypyridin-3-yl)-3H,4H-thieno[2,3-d]pyrimidin-4-one]
Cn1cnc2nc(-c3ccc(F)cc3)n(NCc3ccc(Cl)cc3)c(=O)c21 [Example 39, 1-{[(4-Chlorophenyl)methyl]amino}-2-(4-fluorophenyl)-7-methyl-6,7-dihydro-1H-purin-6-one]
O=c1c2cccnc2nc(-c2ccc(F)cc2)n1NCc1ccc(F)c(F)c1 [Example 12, 3-{[(3,4-Difluorophenyl)methyl]amino}-2-(4-fluorophenyl)-3H,4H-pyrido[2,3-d]pyrimidin-4-one]
Cc1cc(-c2nc3cnccc3c(=O)n2NCc2ccc(Cl)cc2)ccc1O [Example 21, 3-{[(4-Chlorophenyl)methyl]amino}-2-(4-hydroxy-3-methylphenyl)-3H,4H-pyrido[3,4-d]pyrimidin-4-one]
Cc1cncc(-c2nc3nccnc3c(=O)n2NCc2ccc(Cl)cc2)c1 [Example 47, 3-{[(4-Chlorophenyl)methyl]amino}-2-(5-methylpyridin-3-yl)-3,4-dihydropteridin-4-one]
